The values below come from article PMC8998803, “Fragment-Based Discovery of AF9 YEATS Domain Inhibitors” (International Journal of Molecular Sciences, 2022).

Each structure is given as a SMILES string.

The target of assay [1] is T1, AF9 YEATS domain (Homo sapiens, UniProt P42568).
T1 construct: DNA fragment encoding AF9 YEATS domain (residues 1–138) was amplified and cloned into the pET28a vector; made in house; host or cells: Escherichia coli BL21 (DE3)
T1 sequence (P42568 1-138): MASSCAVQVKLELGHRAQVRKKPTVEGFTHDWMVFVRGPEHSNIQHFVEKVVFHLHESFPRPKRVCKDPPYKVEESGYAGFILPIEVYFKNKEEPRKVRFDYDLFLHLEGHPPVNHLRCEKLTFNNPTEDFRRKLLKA
As to the kind of experiment: NMR chemical shift perturbation titration of 15N-labeled AF9 YEATS domain. Type of assay: binding. The following applies: for Kd: from dose-dependent chemical shift perturbations, ± fitting error; for LE: ligand efficiency, Table 1. The source says:
(§1) To further validate the results of ligand-observed fragment-based screening, we titrated these hits with the ^15N-labeled AF9 YEATS domain (Figure 1B). The backbone chemical shift assignment was retrieved from the literature. […] These residues were then mapped to the surface of the crystal structure of the AF9 YEATS domain in complex with H3K9ac (PDB code: 4TMP), which indicated the binding of these hits to the same pocket for acyl-lysine recognition (Figure 1D). The binding affinity of hit 2 was then determined by best fitting the dose-dependent CSPs of these residues (Figure 1E) at 0.07 ± 0.01 mM (fitting error was used henceforth unless specifically annotated). The affinity of hit 2 was further validated using isothermal titration calorimetry (ITC) (Figure 1F). The binding affinity of the other hits was determined using the same approach (Table 1). These four hits probably bound to the same pocket since they shared the same pharmacophore.
The ^15N-labeled AF9 YEATS domain was concentrated to 0.1 mM in phosphate buffered saline at pH 6.8. The HSQC spectra were acquired on the Agilent 500 MHz spectrometer at a ligand/protein molar ratio varying from 0 to 8.0. The dissociation constant Kd was best-fitted using the following equation assuming a 1:1 binding mode, Δδobs=ΔδmaxPt+Lt+Kd−Pt+Lt+Kd^2−4PtLt/2Pt where Pt and Lt represented the total concentrations of the protein and the ligand, respectively, and the Δδobs denoted the observed chemical shift changes relative to the free-form protein. Δδobs was defined as 1/2δH2+0.04δN2 , where δH and δN were the chemical shift changes in the ^1H and ^15N dimension, respectively. The maximum of the chemical shift perturbations Δδmax and the dissociation constant Kd were best-fitted from the dose-dependent chemical shift changes

Assay [2] has as its target T1, AF9 YEATS domain. Description: Isothermal titration calorimetry with AF9 YEATS domain. Type of assay: binding.
Description: as §1
All ITC titrations were carried out on a MicroCal ITC200 calorimeter (Malvern Instruments Ltd., Malvern, UK) at 298K. The AF9 YEATS domain protein was dialyzed to 20 mM Tris buffer containing 150 mM NaCl at pH 7.4. The concentration of the protein was determined by UV-Vis spectroscopy. The compounds were dried and dissolved in the same buffer. The concentrations of compounds were determined using quantitative NMR30. The ITC data were analyzed using Origin 2019 and best-fitted to the one-site binding model to determine the enthalpies and affinity constants. The binding entropies were calculated using the Gibbs free energy equation.

In assay [3] the target is T2, ENL YEATS domain (Homo sapiens, UniProt Q03111).
T2 construct: determined from the dose-dependent chemical shift perturbations of ENL YEATS
T2 sequence (Q03111 1-138 limits assumed): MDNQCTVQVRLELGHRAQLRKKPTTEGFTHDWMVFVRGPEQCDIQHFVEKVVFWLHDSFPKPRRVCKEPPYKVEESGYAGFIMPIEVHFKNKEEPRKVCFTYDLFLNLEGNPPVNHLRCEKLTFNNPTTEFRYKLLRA
Description: NMR chemical shift perturbation titration of ENL YEATS. Type of assay: binding. The following applies: determined by CSPs, read-out: affinity. As for the experimental part: (§2) It is, therefore, difficult to achieve a high selectivity between AF9 and ENL YEATS domains, as underscored by the similar affinity of compound 10 to both AF9 and ENL (38 ± 6 μM) determined by CSPs (Figure 4C), even though compound 10 represented a new chemotype with a binding mode distinct from that of SGC-iMLLT (Figure 4B). […] Therefore, compound 10 was a dual inhibitor of AF9/ENL YEATS domains.
(§3) Figure 4 Selectivity analysis of AF9 inhibitors among human YEATS domains and antiproliferation activities. (A) Sequence alignment of human YEATS domains. Conserved residues are highlighted, with residues interacting with H3K9ac annotated. (B) Superimposition of AF9 and ENL YEATS domain structures in complex with 10 (carbon atom in magenta) and SGC-iMLLT (PDB code: 6HT1), respectively. The hydrogen bonds are delineated by dashed lines. (C) The binding affinity of 10 determined from the dose-dependent chemical shift perturbations of ENL YEATS. The Kd value with the fitting error is annotated. (D) Chemical shift perturbations of the ^15N-labeled YEATS2 YEATS domain induced by 10. (E) The binding affinity of 10 estimated from best fitting of the dose-dependent chemical shift perturbations of the YEATS2 YEATS domain. (F) Viability of MCF7 and AF9-sensitive HGC-27 cells upon treatment with inhibitors at a single dose of 100 μM. […]

Assay [4] concerns NCL-H1975 cells. As to the kind of experiment: Cell viability, NCL-H1975. Conditions: single dose of 100 μM; AF9-sensitive cell line. Format: cell-based.
The test system of assay [5] is HGC-27 cells. As to the kind of experiment: Cell Counting Kit-8 (CCK-8) cell viability assay, HGC-27. The following applies: AF9-sensitive HGC-27 cells.
Description: (§4) We further assessed the cellular activity of these inhibitors in cancer cells.
(§5) Human MCF7 and HGC-27 cell lines were cultured at 37 °C in a humidified 5% CO2 atmosphere in DMEM (Gibco, Stony Plain, AB, Canada) medium supplemented with 10% fetal bovine serum (FBS) (Gibco) and 1 × penicillin/streptomycin (Gibco). MCF7 and HGC-27 cells were seeded in 96-well plates with approximately 10^4 cells in 100 μL of the medium and treated with the following conditions: fresh culture medium with DMSO (control) or fresh culture medium with inhibitors at a concentration of 100 μM. Cell viability was measured using a Cell Counting Kit-8 (Purchased from TargetMol, Boston, MA, USA) according to manufacturer’s instructions [45]. The absorbance was read at 450 nm with a microplate reader (CLARIOstar, BMG LABTECH, Ortenberg, Germany). Cell viability was calculated as the ratio of experimental group absorbance vs. control group absorbance.
Assay [6] deals with MCF7 cells. Description: Cell Counting Kit-8 (CCK-8) cell viability assay, MCF7. The following applies: single dose of 100 μM.
Description: as §4, §5
The target in assay [7] is T3, YEATS2 YEATS domain (Homo sapiens, UniProt Q9ULM3).
T3 construct: Chemical shift perturbations of the ^15N-labeled YEATS2 YEATS domain induced by 10
T3 sequence (Q9ULM3 200-345 limits assumed): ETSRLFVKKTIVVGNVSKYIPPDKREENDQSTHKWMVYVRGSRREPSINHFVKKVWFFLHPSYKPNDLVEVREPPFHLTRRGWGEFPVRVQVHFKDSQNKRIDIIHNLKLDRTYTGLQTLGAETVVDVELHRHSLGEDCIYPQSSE
Description: NMR chemical shift perturbation titration of 15N-labeled YEATS2 YEATS domain. Format: binding. As for the experimental part: as §2, §3

Assay [8] deals with MCF7. Also noted: method as in PMID 30288907. The following applies: cited from earlier work.
Assay [9] has as its system the rest of the 59 cell lines. Also noted: method as in PMID 30288907. The following applies: cited from earlier work.

For `COCC(=O)Nc1ccc(C)c(N)c1` [Compound 1], in assay [1], the Kd came to 137 ± 24 µM and the LE was found to be 0.38.

In assay [2] (ITC binding enthalpy), `COCC(=O)Nc1ccc(Cl)c(N)c1` [Compound 2] showed a ΔH of -10 ± 2 kcal/mol. The Kd in [2] (ITC, 1:1 binding mode, 298K) turned out to be 76 ± 10 µM. Moreover, the “-TΔS” value in assay [2] (ITC, entropy calculated using the Gibbs free energy equation) is 4 kcal/mol. Also, in [1], the Kd stood at 70 ± 10 µM and the LE is given as 0.41.

For `COCC(=O)Nc1ccc(N)cc1Cl` [Compound 3], in assay [1], the Kd was 100 ± 10 µM and the LE is on record as 0.39.

As to `COCC(=O)Nc1ccc(N)cc1C` [Compound 4], in [1], the Kd was 440 ± 100 µM and the LE worked out at 0.33.

`COCC(=O)Nc1ccc(Cl)cc1` [Compound 5]: in assay [1], the Kd came to 80 ± 60 µM and the LE is 0.43. In addition, in [1] (relative to hit 2), the “change of affinity (in words)” value was “did not significantly alter the affinity”.

Regarding `COCC(=O)Nc1ccc(Cl)c(O)c1` [Compound 6], in assay [1], the Kd stood at 61 ± 4 µM and the LE came out at 0.41. Further, in assay [1] (relative to hit 2), the “change of affinity (in words)” value is “did not significantly alter the affinity”.

Consider `CNC(=O)Cc1ccc(NC(=O)COC)cc1` [Compound 7], for which, in assay [1], the Kd turned out to be 270 ± 20 µM and the LE is 0.29.

On to `COCC(=O)Nc1ccc(CNC(C)=O)cc1` [Compound 8], for which, in assay [1], the Kd amounted to 310 ± 4 µM.

`CNCC(=O)Nc1ccc(CNC(C)=O)cc1` [Compound 9]: in [1], the Kd is 660 ± 70 µM and the LE is listed as 0.26.

Regarding `O=C(COCc1ccccc1)Nc1ccc(Cl)cc1` [Compound 10], the values for the Kd in [3], in assay [7] (estimated from best fitting of dose-dependent chemical shift perturbations) and in [1] were 38 ± 6 µM, above 200 µM and 38 ± 6 µM, respectively. For the same molecule, the “effect on NCL-H1975 cells (in words)” value in [4] is “demonstrated inhibitory effects”. Also, the “proliferation of HGC-27 cells (in words)” value in assay [5] was “suppressed the proliferation of AF9-sensitive HGC-27 cells more effectively in a dose-dependent manner”. In assay [6], the “potency in MCF7 cells (in words)” value is “weak potency”. Besides, in assay [7] (chemical shift of YEATS2 only slightly disturbed), the “binding affinity (in words)” value is reported as “very weak binding affinity”. Moreover, the “enhancement of the affinity for the AF9 YEATS domain” value in [1] (relative to hit 2) is “approximately two-fold enhancement”.

In the case of `O=C(COc1ccccc1)Nc1ccc(Cl)cc1` [Compound 11], in assay [1], the Kd is 88 ± 30 µM and the LE worked out at 0.31.

Take `O=C(COCc1ccc(F)cc1)Nc1ccc(Cl)cc1` [Compound 12]: in [1], the Kd was 87 ± 11 µM and the LE is reported as 0.28.

Turning to `O=C(COCc1ccccc1O)Nc1ccc(Cl)cc1` [Compound 13], in assay [1], the Kd is 70 ± 9 µM and the LE turned out to be 0.28.

Take `O=C(COCc1ccccc1)Nc1c(F)cc(Cl)cc1F` [Compound 14]: the “affinity enhancement relative to that of 10” value in assay [1] (AF9 YEATS) is on record as “approximately 30%”. Also, in assay [1], the Kd was found to be 26 ± 4 µM and the LE was found to be 0.30.

Take `C[C@H]1CCCN1Cc1nc2cc(NC(=O)c3ccc4c(cnn4C)c3)ccc2[nH]1` [SGC-iMLLT]: in assay [8], the “potency in MCF7 (in words)” value is recorded as “weak potency”. In assay [9], the “activities over the rest of the 59 cell lines (in words)” value is given as “almost no detectable activities”.
